Where a name gives a salt, the structure may show the parent alone. Read-outs that look alike come from different tables or passages of the source.

30 molecules from US20240398785A1, “SMALL MOLECULE DRUGS FOR THE INDUCTION OF TRAINED IMMUNITY” (THE UNIVERSITY OF CHICAGO, priority 2023, published 2024) can be followed below.

The subject of assay [1] is bone marrow-derived macrophages (BMDMs). The assay can be described thus: High-throughput trained immunity screening (TNF-α by HEK-Blue Quanti-Blue assay). As to conditions: Mus musculus, BMDM, read-out: Fold Change (TNF-α production increase over untrained control).
Experimental: High-throughput trained immunity screening: Mature BMDMs were plated at 25,000 cells per well in 45 μL media in 384-well flat-bottomed plates using the Thermo Multidrop Combi liquid handler. Cells were rested overnight at 37° C. and 5% CO2. The following day, training compounds from the Microsource Spectrum Library were added at a volume of 45 nL using the PerkinElmer Janus G3 with Pintools for a final concentration of 1 μM. On day 2, supernatant was removed using the Janus, cells were washed with warm PBS using the Multidrop, and fresh media was added to the cells using the Multidrop. On day 5, cell density was quantified using the IncuCyte imager and software, then cells received media containing 25 ng/mL IFN-7 (BD Biosciences) for 24 hours. On day 6, cells were stimulated with 25 ng/mL Pam3-CSK4 (Invivogen). Supernatant was collected on day 6 and on day 7 following 24 hours of TLR stimulation, and it was stored at −80° C.
To measure TNF-α concentration in the supernatant, a high-throughput Quanti-Blue assay was used. HEK-Blue TNF-α cells (Invivogen) were plated at a density of 25,000 cells per well in 45 μL media (DMEM, 10% HIFBS). 5 μL of supernatant is added to each well using the Janus liquid handler, then the plates were incubated for 24 hours at 37° C. and 5% CO2. The following day, 20 μL of concentrated Quanti-Blue reagent was added to each well using the Combi liquid handler, and the plate was shaken for one minute. Then, the plate incubated at room temperature for 15 minutes before absorbance was measured at 628 nm using the BioTek Synergy NEO 2. All data is represented as a fold change relative to the average of the Pam3 only untrained control (n=20) on each plate.
An additional plate was seeded alongside the screen plates for a manual training assay and ELISA measurement of cytokine secretion to confirm that the BMDMs were behaving as expected. […] On Day 5, each well was imaged using an IncuCyte to quantify cell viability relative to the untrained controls.^20 Furthermore, the cells were checked to see if they maintained a resting phenotype before TLR stimulation by collecting and freezing the supernatant on Day 6 to measure TNF-α concentration after the assay was complete. Trained immunity effects are distinct from innate immune priming, so we checked that the cells maintained a resting phenotype before TLR stimulation by collecting and freezing the supernatant from each of the three screening replicates on Day 6 to measure TNF-α concentration after the assay was complete (FIG. 1F).
For each replicate of the screen, a modified version of the standard 7-day training assay was used.^18 TNF-α concentration was measured using a high throughput Quanti-Blue assay in HEK-Blue TNF-α cells. Concentration is proportional to absorbance measured at 628 nm within the range of the assay. 2,000 small molecules from the MicroSource Spectrum Library were screened.
For assay [2] the test system is unchanged. The assay can be described thus: In vitro trained immunity assay (ELISA, TLR agonist challenge). The assay is classed as cell-based, mouse. To be noted: for IL-6 production following challenge: 100 ng/mL Pam3. A general note: An ELISA detects its analyte on a solid surface through an enzyme-linked reagent.
Experimental: FIG. 2H is a graph showing TNF-α concentration from BMDMs trained with PBS or hydrocortisone at a concentration of 10 μM followed by challenge with 100 nanograms per milliliter (ng/mL) lipopolysaccharide (LPS) or Pam3 (n=30). […] FIG. 2I is a graph showing TNF-α or interleukin-6 (IL-6) concentration from BMDMs treated with 10 μM hit compounds one hour (hr) prior to 24 hr stimulation with 100 ng/mL Pam3 (n=6). […] All values are expressed as mean±SEM, and statistics were conducted using 1-way ANOVA with Dunnett's multiple comparisons test (significance compared with untrained group). *P<0.05, **P<0.01, ***P<0.001, ****P<0.0001, n.s., not significant.
TNF-α (FIG. 13D) and IL-6 (FIG. 13E) were measured from BMDM cell culture supernatant 24 h following treatment with small molecules or β-glucan.
In vitro trained immunity assay: Mature BMDMs were plated at 10^5 cells per well in 200 L media in 96-well flat-bottomed plates and rested overnight at 37° C. and 5% CO2. The following day, training molecules were added at specified concentrations and incubated for 24 hours. After training, cells were washed with warm PBS and rested for 3 days in fresh media. On day 5, cells received fresh media containing 25 ng/mL IFN-7 (BD Biosciences) for 24 hours. On day 6, cells were stimulated with 100 ng/mL Pam3CSK4 (Invivogen). Cell supernatant was collected 24 hours after stimulation. Supernatants were measured for IL-6 and TNF-α concentrations using ELISA MAX Deluxe kits (BioLegend) according to manufacturer's instructions.
To select an optimal concentration and agonist pairing, a series of ELISAs were performed to validate the training effects.
Assay [3] shares this test system. Description: Chemical inhibition of training (MTA, EGCG, 2DG pre-treatment). The assay is classed as cell-based, mouse. The method, then: FIG. 3D is a graph of a glycolysis inhibition assay using 1 mM 2DG and measuring TNF-α concentration following Pam3 challenge in cells trained with 10 μM hydrocortisone after 1 h of pre-treatment with PBS or 2DG (n=15). FIGS. 3E-3I are graphs of TNF-α concentration following Pam3 challenge in cells trained with M 5-Fluoroindole-2-Carboxylic Acid (FIG. 3E), Myricetin (FIG. 3F), Nerol (FIG. 3G), Hydroquinone (FIG. 3H), or Fenoterol hydrobromide (FIG. 3I) after pre-treatment with PBS or glycolysis inhibitor, 2DG (n=15). […] All values are expressed as mean±SEM, and statistics were conducted using 2-way ANOVA with Sidak's multiple comparisons test (significance compared with untrained group). *P<0.05, **P<0.01, ***P<0.001, ****P<0.0001, n.s., not significant.
For inhibition studies, BMDMs received inhibitors at specified concentrations 1 h prior to stimulation with training molecules, and inhibitors were present for the entire 24 h training period. […] To test metabolic pathway involvement, cells were pretreated with 1 mM 2′ deoxy-D-glucose.
Upregulation of glycolysis is commonly implicated as one of the underlying mechanisms in the induction of trained immunity.

The next assay deals with peritoneal cells. Description: Peritoneal lavage spectral flow cytometry 2 h after LPS challenge. The assay is classed as in vivo, mouse. The method, then:
FIG. 4A is a schematic drawing showing a method of screening small molecule inducers of trained immunity in vivo. Mice were injected intraperitoneally (i.p.) with small molecules or vehicle control on days 0, 2, and 4. Mice were challenged with 1 μg lipopolysaccharide (LPS) on day 11 and then bled 1 hour (h) later. […] All values are expressed as mean±SEM, and statistics were conducted using 1-way ANOVA or 2-way ANOVA with multiple comparisons (significance compared with untrained group). *P<0.05, **P<0.01, ***P<0.001, ****P<0.0001, n.s., not significant. All values are expressed as mean±SEM, and statistics were conducted using 1-way ANOVA with two-stage linear step-up procedure (significance compared with untrained group). *P<0.05, **P<0.01, ***P<0.001, ****P<0.0001, n.s., not significant.
To determine which cells were involved, mice were given training injections and challenged as previously described. Then, 2 h after challenge, the mice were sacrificed, and peritoneal cells were collected by lavage. The cells were fixed and stained for intracellular TNF-α and IL-6 and surface costimulatory markers, CD40, CD86, and MHCII. Lineage markers were included for innate immune cells, including neutrophils, eosinophils, monocytes, macrophages, and dendritic cells. The stained cells were then analyzed via spectral flow cytometry.
The activation of these cells and changes to co-stimulatory molecules were then investigated.

Where [4] appears, read: glycolysis inhibitor 2-deoxy-D-glucose 1 mM.
Where [5] appears, read: peritoneal lavage, 2 h after challenge.

As to `CC1(C)O[C@@H]2C[C@H]3[C@@H]4CCC5=CC(=O)CC[C@]5(C)[C@@]4(F)[C@@H](O)C[C@]3(C)[C@]2(C(=O)CCl)O1` [Halcinonide], the fold induction at 1 µM in assay [1] is 2.7.

With `CCC(C)(C)C(=O)O[C@H]1C[C@@H](C)C=C2C=C[C@H](C)[C@H](CC[C@@H]3C[C@@H](O)CC(=O)O3)[C@H]21` [Simvastatin], the fold induction at 1 µM in assay [1] was determined as 1.61.

With `NC(CO)C(=O)NNCc1ccc(O)c(O)c1O` (centres unmarked) [Benserazide hydrochloride], the fold induction at 1 µM in assay [1] worked out at 1.61.

`C[C@]12C=CC(=O)C=C1CC[C@H]1[C@@H]3C[C@@H](O)[C@](O)(C(=O)CO)[C@@]3(C)C[C@H](O)[C@@]12F` [Triamcinolone]: the fold induction at 1 µM in assay [1] stood at 1.76.

On to `CC1(C)O[C@@H]2C[C@H]3[C@@H]4C[C@H](F)C5=CC(=O)C=C[C@]5(C)[C@@]4(F)[C@@H](O)C[C@]3(C)[C@]2(C(=O)CO)O1` [Fluocinolone acetonide], for which, in assay [1], the fold induction at 1 µM worked out at 2.28.

On to `CCC(=O)O[C@]1(C(=O)CCl)[C@@H](C)C[C@H]2[C@@H]3CCC4=CC(=O)C=C[C@]4(C)[C@@]3(F)[C@@H](O)C[C@@]21C` [Clobetasol propionate], for which the fold induction at 1 µM in assay [1] is 2.07.

Consider `CC(=O)OCC(=O)[C@@]1(O)CC[C@H]2[C@@H]3CCC4=CC(=O)CC[C@]4(C)[C@H]3[C@@H](O)C[C@@]21C` [Hydrocortisone acetate], for which the fold induction at 1 µM in assay [1] worked out at 1.68.

`O=c1[nH]c(=O)n([C@H]2C[C@H](O)[C@@H](CO)O2)cc1F` [Floxuridine]: the fold induction at 1 µM in assay [1] was 1.6.

On to `NC(=O)N/N=C/c1ccc([N+](=O)[O-])o1` [Nitrofurazone], for which the fold induction at 1 µM in assay [1] is 1.69.

For `O=c1c(O)c(-c2cc(O)c(O)c(O)c2)oc2cc(O)cc(O)c12` [Myricetin], in assay [2], the “IL-6 production following challenge” value is listed as “increased production of IL-6”. In assay [3] (setting [4]), the “training (TNF-α after Pam3) after 2DG pre-treatment” value (from here on “training … after 2DG pre-treatment”) was “not susceptible to suppression of training”. In the assay on peritoneal cells (2 h after challenge), the “cell count in the peritoneal lavage” value was “increased cell count”. The “number of TNF-α+ and IL-6+ eosinophils” value in the assay with peritoneal cells (setting [5]) was “significant increases”. The fold induction at 1 µM in assay [1] was 2.19.

As for `CN1CCCN=C1COC(=O)C(O)(c1ccccc1)C1CCCCC1` (centres unmarked) [Oxyphencyclimine hydrochloride], the fold induction at 1 µM in assay [1] came out at 1.67.

As for `CC(=O)OCC(=O)[C@@]12OC(C)(C)O[C@@H]1C[C@H]1[C@@H]3C[C@H](F)C4=CC(=O)C=C[C@]4(C)[C@@]3(F)[C@@H](O)C[C@@]12C` [Fluocinonide], the fold induction at 1 µM in assay [1] is 2.29.

Regarding `Oc1ccc(Cl)cc1Cc1cc(Cl)ccc1O` [Dichlorophene], in assay [1], the fold induction at 1 µM turned out to be 1.61.

Turning to `CC(C)=CCC/C(C)=C\CO` [Nerol], the “training … after 2DG pre-treatment” value in assay [3] (setting [4]) was “not susceptible to suppression of training”. Further, the fold induction at 1 µM in assay [1] worked out at 1.73.

For the molecule `Cc1cc2cc3c(C)cc(=O)oc3c(C)c2o1` [Trioxsalen], in assay [1], the fold induction at 1 µM was 1.66.

For the molecule `CC(C)[C@H]1CC[C@H](C(=O)N[C@H](Cc2ccccc2)C(=O)O)CC1` [Nateglinide], the fold induction at 1 µM in assay [1] was determined as 1.6.

In the case of `CC(=O)N[C@@H](CC(=O)O)C(=O)O` [N-Acetylaspartic acid], the fold induction at 1 µM in assay [1] is 1.6.

For `C[C@]12C=CC(=O)C=C1CC[C@@H]1[C@@H]2[C@@H](O)C[C@@]2(C)[C@H]1CC[C@]2(O)C(=O)CO` [Prednisolone], the fold induction at 1 µM in assay [1] came to 2.06.

Regarding `Cc1cc(CC(=O)O)n(C)c1C(=O)c1ccc(Cl)cc1` [Zomepirac Sodium], the fold induction at 1 µM in assay [1] came out at 1.7.

For `CCCC1O[C@@H]2C[C@H]3[C@@H]4CCC5=CC(=O)C=C[C@]5(C)[C@H]4[C@@H](O)C[C@]3(C)[C@]2(C(=O)CO)O1` (some centres unmarked) [Budesonide], the fold induction at 1 µM in assay [1] came out at 2.69.

On to `N#Cc1c(Cl)c(Cl)c(Cl)c(C#N)c1Cl` [Tetrachloroisophthalonitrile], for which, in assay [1], the fold induction at 1 µM turned out to be 1.61.

On to `Oc1ccc(O)cc1` [Hydroquinone], for which the “training … after 2DG pre-treatment” value in assay [3] (setting [4]) is “not susceptible to suppression of training”. Also, in the assay with peritoneal cells (setting [5]), the “cytokine MFIs among TNF-α+ neutrophils and IL-6+ eosinophils” value is “significant increases”; the “number of TNF-α+ and IL-6+ cells” value was “no increase”. The fold induction at 1 µM in assay [1] turned out to be 1.68.

Take `CC(Cc1ccc(O)cc1)NCC(O)c1cc(O)cc(O)c1` (centres unmarked) [Fenoterol hydrobromide]: the “training … after 2DG pre-treatment” value in assay [3] (setting [4]) is reported as “not susceptible to suppression of training”. Besides, the fold induction at 1 µM in assay [1] was 1.62.

Take `CC1(C)O[C@@H]2C[C@H]3[C@@H]4C[C@H](F)C5=CC(=O)C=C[C@]5(C)[C@H]4[C@@H](O)C[C@]3(C)[C@]2(C(=O)CO)O1` [Flunisolide]: the “training … after 2DG pre-treatment” value in assay [3] (setting [4]) is listed as “significant inhibition of training”. For the same molecule, the “training (TNF-α after Pam3) after EGCG pre-treatment” value in assay [3] (histone acetyltransferase inhibitor EGCG 15 μM, 10 μM compound) is “slightly reduce training though statistical significance was not achieved”. Further, in assay [3] (methyltransferase inhibitor MTA 500 μM, 10 μM compound), the “training (TNF-α after Pam3) after MTA pre-treatment” value is “significant inhibition of training”. Further, the “cell count in the peritoneal lavage” value with peritoneal cells (2 h after challenge) is on record as “increased cell count”. In the assay with peritoneal cells (peritoneal lavage), the “CD86 on eosinophils and small peritoneal macrophages (MFI of CD86+ cells)” value is “increased amount”; the “MFI of MHCII+ SPMs” value was “increased”. The “number of TNF-α+ and IL-6+ eosinophils” value in the assay with peritoneal cells (setting [5]) is “significant increases”. Besides, the fold induction at 1 µM in assay [1] is 2.49.

Regarding `CC1(C)C(C(Cl)Cl)C2(Cl)C(Cl)C(Cl)C1(Cl)C2(Cl)Cl` (centres unmarked) [Toxaphene], the fold induction at 1 µM in assay [1] was determined as 1.63.

As for `CC(=O)OCC(=O)[C@@]1(O)[C@H](OC(C)=O)C[C@H]2[C@@H]3CCC4=CC(=O)C=C[C@]4(C)[C@@]3(F)[C@@H](O)C[C@@]21C` [Triamcinolone diacetate], in assay [1], the fold induction at 1 µM is 1.73.

`O=C(O)c1cc2cc(F)ccc2[nH]1` [5-Fluoroindole-2-carboxylic acid]: in assay [3], the “training … after 2DG pre-treatment” value is reported as “not susceptible to suppression of training”. The fold induction at 1 µM in assay [1] was determined as 2.47.

As to `C[C@]12CCC(=O)C=C1CC[C@@H]1[C@@H]2[C@@H](O)C[C@@]2(C)[C@H]1CC[C@]2(O)C(=O)CO` [Hydrocortisone], in assay [2], the “IL-6 production following challenge” value is “increased production of IL-6”. Besides, the “TNF-α training effect with TLR4 and TLR1/2 agonists” value in assay [2] (10 μM, challenge 100 ng/mL LPS or Pam3, n=30) was “Training effects were observed”. The “training … after 2DG pre-treatment” value in assay [3] (setting [4]) is “significant inhibition of training”. In assay [1], the fold induction at 1 µM came out at 1.78.

Turning to `COc1ccc(OC)c(C(O)C(C)N)c1` (centres unmarked) [Methoxamine hydrochloride], in assay [1], the fold induction at 1 µM is 2.21.

In the case of `C=C1CCC2C(CC2(C)C)C(=O)CCC1O` (centres unmarked) [Isokobusone], the fold induction at 1 µM in assay [1] was determined as 1.66.
